For orientation: IC50 means the concentration that gives 50% inhibition. Read a high IC50 as weaker potency in that assay.

The target of one assay is T1, Oxytocin receptor (Rattus norvegicus, UniProt P70536).
T1 sequence (P70536 whole entry): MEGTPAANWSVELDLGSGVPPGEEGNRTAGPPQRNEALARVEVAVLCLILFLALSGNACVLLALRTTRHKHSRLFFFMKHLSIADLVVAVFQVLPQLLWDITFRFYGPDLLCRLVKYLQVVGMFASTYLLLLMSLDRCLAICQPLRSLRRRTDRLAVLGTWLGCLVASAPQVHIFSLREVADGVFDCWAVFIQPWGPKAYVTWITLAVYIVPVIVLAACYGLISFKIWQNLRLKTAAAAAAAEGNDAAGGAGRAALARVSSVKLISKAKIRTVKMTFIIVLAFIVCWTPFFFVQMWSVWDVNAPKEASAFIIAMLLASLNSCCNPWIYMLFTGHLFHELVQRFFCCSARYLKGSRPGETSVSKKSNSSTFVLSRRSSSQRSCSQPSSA
Nature of the assay: Compound was tested for its ability to inhibit binding of Oxytocin to its Oxytocin receptor in rat uterine tissue.

The nature of assay [1]: Compound was tested for its ability to inhibit binding of arginine vasopressin to Vasopressin receptor (V1 subtype).

Turning to `COc1c([C@H](CC(C)C)OC(C)=O)ccc2c1C(=O)OCc1cc(C)cc(OC(C)=O)c1O2`, at Oxytocin receptor, the 50% inhibitory concentration (IC50) is 5 µM. As for `COc1c([C@H](CC(C)C)OC(C)=O)ccc2c1C(=O)OCc1cc(C)cc(O)c1O2`, the 50% inhibitory concentration (IC50) in assay [1] is more than 100 µM; at Oxytocin receptor, 8.4 µM. As for `COc1c(C(=O)CC(C)C)ccc2c1C(=O)OCc1cc(C)cc(O)c1O2`, on Oxytocin receptor, the IC50 is more than 100 µM. As for `COc1cc(C)cc2c1Oc1ccc([C@H](CC(C)C)OC(C)=O)c(OC)c1C(=O)OC2`, the figures for the IC50 (in assay [1]; on Oxytocin receptor) were more than 100 µM and 21 µM, respectively. As to `COc1c([C@H](CC(C)C)OC(C)=O)ccc2c1C(=O)Oc1cc(C)cc(C=O)c1O2`, on Oxytocin receptor, the IC50 was more than 100 µM. On the same count and under the same terms, in the case of `COc1cc(C)cc2c1Oc1ccc([C@@H](O)CC(C)C)c(OC)c1C(=O)OC2` it was more than 100 µM; in that of `COc1c([C@@H](O)CC(C)C)ccc2c1C(=O)OCc1cc(C)cc(O)c1O2` [PENICILLIDE], 67 µM.

Source of the values: ChEMBL document CHEMBL1150035, “Potent, non-peptidic oxytocin receptor antagonists from a natural source” (Bioorg Med Chem Lett, 1993).
